9 molecules from PubChem BioAssay (NCI) can be followed below.

Several values for one entry are separate records, joined by “and”; a condition that tells them apart may be missing. Identical values can stand only once.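 All cell lines were grown in 96-well plates and treated with compound for 48 hours. At the GI50, growth is halved. Definition used: TGI = concentration required for complete inhibition of growth.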

What all share (test): NCI tumour cell line growth inhibition, 48 h
Assay [1] concerns A549 NSCLC.
The test system of assay [2] is HCT-116 colon.
Assay [3] concerns KM12 colon.
For assay [4], the system named is OVCAR-5 ovarian.
Assay [5] concerns OVCAR-8 ovarian.
Assay [6] concerns RXF 393 renal.
Assay [7] relates to SR leukemia.
In assay [8] the test system is TK-10 renal.
The test system of assay [9] is U251 CNS.
Assay [10] concerns UO-31 renal.

In the case of `Cn1cc(C2=C(c3ccc(OC[C@@H](O)CO)cc3)C(=O)NC2=O)c2ccccc21`, the GI50 is more than 25 µM in assay [1]; more than 25 µM in assay [2]; more than 25 µM in assay [3]; more than 25 µM in [4]; more than 25 µM in assay [5]; 16.4 µM in assay [6]. The GI50 in assay [7], in assay [8], in assay [9] and in [10] was more than 25 µM throughout. Moreover, the TGI in assay [1], in [2], in assay [3], in assay [4], in assay [5] and in assay [6] was more than 25 µM throughout. For the same molecule, the TGI in assay [7], in [8], in assay [9] and in [10] was more than 25 µM in each case.

With `CN(C)CCNc1nc2ccccc2c2[nH]c3ccccc3c12`, the GI50 was 0.37 µM in assay [1]; 0.106 µM in assay [2]; 0.328 µM in assay [3]; 1.56 µM in assay [4]; 0.535 µM in [5]; 1.27 µM in assay [6]. In addition, the GI50 in assay [7] is 0.341 µM; in assay [8] it was 0.429 µM; in [9], 0.386 µM; in assay [10], 1.01 µM. Moreover, the TGI came to 10.1 µM in [1]; 2.25 µM in assay [2]; 2.92 µM in assay [3]; 21.9 µM in assay [4]; 9.93 µM in [5]; 5.41 µM in [6]. Besides, the TGI in assay [7] is 1.31 µM; in [8] it was 1.95 µM; in assay [9], 2.04 µM; in [10], 13 µM.

On to `O=S(=O)(O)C(O)/C=C/c1ccccc1` (configuration not stated), for which the TGI in assay [1], in assay [2], in assay [3], in assay [4], in assay [5] and in assay [6] was more than 100 µM each time. Moreover, the TGI in [7], in assay [8], in assay [9] and in [10] was more than 100 µM each time.

`CN(C)c1ccc(/C=C2\C[N+](C)(C)C/C(=C\c3ccc(N(C)C)cc3)C2=O)cc1`: the TGI in [1] was more than 100 µM; in assay [2] it was 22.5 µM; in assay [3], 19.1 µM; in assay [4] it was 96.5 µM; in assay [5], 65.7 µM; in assay [6], more than 77.7 µM. The TGI in assay [7] was 36.6 µM; in [8] it was more than 100 µM; in assay [9], 25 µM; in [10], more than 100 µM.

`CC[n+]1ccc2c(c1)C(=O)c1nccc3c1c-2nc1ccccc13`: the GI50 is 0.958 µM in assay [1]; 1.1 µM in assay [2]; 2.41 µM in [3]; 6.88 µM in assay [4]; 1.04 µM in [5]; 0.93 µM in assay [6]. The GI50 in assay [7] is 0.339 µM; in assay [8], 4.77 µM; in assay [9], 0.35 µM; in [10] it was 0.948 µM. For the same molecule, the TGI in assay [1] is 13.5 µM; in assay [2], 7.18 µM; in [3], 15.2 µM; in [4], 19.4 µM; in assay [5], 6.47 µM; in [6] it was 3.68 µM. Further, the TGI in [7] turned out to be 12.4 µM; in [8], 16.8 µM; in assay [9] it was 1.28 µM; in assay [10], 8.42 µM.

Regarding `O=C(O)CCCc1ccc(N(CCCl)CCCl)cc1`, the GI50 in [1] was 12.7 µM and > 89.5 µM; in assay [2], 23 µM and 144 µM; in assay [4] it was 20.6 µM and 173 µM; in assay [5], 17.5 µM and 68 µM; in [6] it was 9.53 µM and 57.7 µM; in [7] it was 0.922 µM. In addition, the GI50 is 25.4 µM and 81.4 µM in [8]; 9.38 µM and 32 µM in assay [10]. The TGI is > 92.2 µM and 633 µM and 621 µM in [1]; 63 µM and 389 µM and 328 µM in [2]; 57.8 µM and 351 µM and 485 µM in assay [3]; 45.4 µM and 274 µM and 374 µM in assay [4]; 57.8 µM and 366 µM and 159 µM in assay [5]; 23 µM and 118 µM and 97.7 µM in [6]. Further, the TGI in assay [8] was 70.8 µM and 471 µM and 221 µM; in [9] it was 29.9 µM and 219 µM and 251 µM; in assay [10] it was 34.7 µM and 272 µM and 56.2 µM.

On to `CC1=C[C@@H]2Cc3occc3C(C)(C)[C@@H]2CC1`, for which the TGI stood at 49.6 µM in [1]; 33.7 µM in [2]; 33.4 µM in assay [3]; 50.3 µM in assay [4]; 37.5 µM in assay [5]; 33.7 µM in [6]. Also, the TGI in assay [7] is 32.7 µM; in assay [8], 45.4 µM; in assay [9], 32.7 µM; in assay [10], 33.8 µM.

Take `OC(c1cccc(C(F)(F)F)c1)c1cnccc1NC1CCCCCC1` (configuration not stated): the GI50 in [1] is 3.58 µM; in assay [2], 1.65 µM; in [3], 1.93 µM; in assay [4], 1.7 µM; in assay [5], 2.1 µM; in [6] it was 1.44 µM. The GI50 in assay [7] is 2.2 µM; in assay [8], 1.74 µM; in assay [9], 1.83 µM; in [10] it was 1.35 µM. The TGI turned out to be 11.4 µM in assay [1]; 3.18 µM in [2]; 3.75 µM in assay [3]; 3.76 µM in assay [4]; 4.59 µM in [5]; 2.89 µM in assay [6]. Moreover, the TGI was determined as 6.51 µM in assay [7], 3.24 µM in [8], 3.43 µM in assay [9] and 2.97 µM in [10].

With `COc1ccc(CN2CCCC(C(=O)c3ccc(C(F)(F)F)cc3)C2)c(O)c1` (configuration not stated), the GI50 in [1] was 36.4 µM; in assay [2], 21.2 µM; in assay [3], 30.5 µM; in assay [4], 20.2 µM; in [5] it was 36.6 µM; in assay [6], 16.9 µM. Besides, the GI50 in [7] is 18 µM; in assay [8], 31.3 µM; in assay [9] it was 26 µM; in assay [10], 14.4 µM. Also, the TGI in assay [1] is more than 100 µM; in assay [2], more than 100 µM; in assay [3], 86 µM; in [4] it was 66.1 µM; in assay [5], more than 100 µM; in assay [6], 71.9 µM. The TGI in assay [7] was 66.5 µM; in [8] it was 88.7 µM; in [9] it was more than 100 µM; in assay [10], 59.6 µM.
